Assay results reported in US20240041878A1, “APELIN RECEPTOR MODULATORS FOR TREATMENT OF A DISORDER OR DISEASE ASSOCIATED WITH BBB PERMEABILITY” (BioAge Labs, Inc., priority 2022, published 2024).

Key:
[1] = system: 26-month-old female C57BL/6 mice; test: Age-dependent BBB permeability model, Evans blue assay; format: in vivo, mouse; details: 50 mg/kg BID P.O. one week; aged versus aged+BGE-105; p<0.01
Procedure: The mice were handled in accordance with principles and guidelines established by the “Guide for the Care and Use of Laboratory Animals” and overseen by the BioAge Lab's institutional animal care and use committee (IACUC). Mice were housed conventionally in a constant temperature (20-22° C.) and humidity (40%-60%) animal room with a 12/12 h light/dark cycle and free access to food and water.
For assessment of BGE-105 activity, the age-dependent BBB permeability model was established using 26-month-old female C57BL/6 mice. Mice were randomized based on the body weight and body condition scores to two groups (vehicle or BGE-105, n=8). Mice were administered P.O. vehicle (Control) or BGE-105 via P.O. at 50 mg/kg (BID) for one week (7 days). See FIG. 4B for a schematic of the protocol. The BBB permeability was measured via Evans blue assay. Mice were intravenously injected with Evans Blue (2%, 75 ul/30 g BW). […]
Frozen olfactory bulb and hippocampus were placed in 200 μl of extraction buffer (50% trichloroacetic acid in formamide) for 24 hours. […] Endpoint fluorescence was recorded (620 nm excitation, 680 nm emission) with a SpectraMax iD5 (Molecular Devices), normalized to tissue weight, and relative treatment-related change in fluorescence (a measure of blood-brain barrier leakage) was calculated compared to untreated aged mice.

26 month-old mice [2] = test: Quantikine ELISAs for mouse CXCL1 and CXCL13 in plasma of aged mice; format: in vivo; details: 50 mg/kg BID P.O. one week, p<0.05
Procedure: The mice were handled in accordance with principles and guidelines established by the “Guide for the Care and Use of Laboratory Animals” and overseen by the BioAge Lab's institutional animal care and use committee (IACUC). Mice were housed conventionally in a constant temperature (20-22° C.) and humidity (40%-60%) animal room with a 12/12 h light/dark cycle and free access to food and water. 26 month-old mice were randomized based on the body weight and body condition scores to two groups (vehicle or BGE-105, n=8). 4 month-old female mice were used as an additional control group (vehicle, n=4). Mice were administered P.O. vehicle or BGE-105 at 50 mg/kg (BID) for one week. After completion of dosing, blood samples were collected via retro-orbital bleeding under isoflurane anesthesia into K2-EDTA tubes to prevent coagulation. Mice were euthanized via transcardiac perfusion under isoflurane anesthesia. […]
For quantitative analysis, plasma samples were assessed with Quantikine® enzyme-linked immunosorbent assays (ELISAs) for mouse CXCL1 and CXCL13 (R&D Systems) according to manufacturer's instructions. Optical density of the completed ELISA was imaged using a SpectraMax iD5 (Molecular Devices), sample concentrations were calculated compared to a standard curve, and relative change with age+/−BGE-105 treatment was calculated with young mouse plasma serving as the normalization.

26 month-old mice [3] = test: Total BDNF ELISA in hippocampus of aged mice; format: in vivo, mouse; details: 50 mg/kg BID P.O. one week, p<0.05
Procedure: The mice were handled in accordance with principles and guidelines established by the “Guide for the Care and Use of Laboratory Animals” and overseen by the BioAge Lab's institutional animal care and use committee (IACUC). Mice were housed conventionally in a constant temperature (20-22° C.) and humidity (40%-60%) animal room with a 12/12 h light/dark cycle and free access to food and water. 26 month-old mice were randomized based on the body weight and body condition scores to two groups (vehicle or BGE-105, n=8). Mice were administered P.O. vehicle or BGE-105 at 50 mg/kg (BID) for one week. […]
Hippocampal samples were homogenized with 30 volumes of radioimmunoprecipitation immunoassay (RIPA) buffer with Halt Protease and Phosphatase Inhibitor (Thermofisher) before being spun at 16,000×g for 20 minutes at 4° C. and supernatant removed to new, labeled tube. Total protein concentrations for each sample were analyzed with Pierce BCA Protein Assay Kit (Thermofisher) according to manufacturer's instructions, then all samples were diluted to 0.2 μg/μL with RIPA buffer.
For quantitative analysis of hippocampal BDNF expression, tissue samples were assessed with Quantikine® enzyme-linked immunosorbent assay (ELISA) for Total BDNF (R&D Systems) according to manufacturer's instructions. […]

[4] = system: primary SOD1^G93A mouse astrocytes; test: Primary SOD1^G93A mouse astrocytes: cytokine release and NF-κB signaling; format: cell-based
Text: The study characterizes effects of BGE-105 on primary astrocytes derived from wildtype and SOD1^G93A mice in vitro. This includes measuring effects on gene expression, secretion of inflammatory cytokines, and glutamate uptake.
The study utilizes primary mouse astrocyte and neuron cultures generated from the SOD1^G93A mouse model of familial ALS as previously described (Lundquist et al. 2019. Exercise induces region-specific remodeling of astrocyte morphology and reactive astrocyte gene expression patterns in male mice. Journal of Neuroscience Research, 97(9), 1081-1094) with some modifications. Briefly, whole spinal cords are resected from PNDO-4 (postnatal day) SOD1^G93A+ pups and wildtype littermates. […]
Astrocytes from wildtype and SOD1^G93A mice are first studied in isolation to compare transcriptomic and cytokine release profiles. […] ACM (astrocyte-conditioned media) are analyzed for release of cytokines and neurotrophic factors using Mouse Proteome Profiler Arrays (R&D Systems), and commercially available ELISAs (for select cytokines from protein arrays). Astrocytic gene expression are analyzed by RT-qPCR, and astrocyte protein expression are analyzed by western blotting as previously described (Lundquist et al, 2022).

COc1cccc(OC)c1-n1c(NS(=O)(=O)[C@@H](C)[C@H](C)c2ncc(C)cn2)nnc1-c1cncc(C)c1 [BGE-105, (2S,3R)—N-(4-(2,6-dimethoxyphenyl)-5-(5-methyl-3-pyridinyl)-4H-1,2,4-triazol-3-yl)-3-(5-methyl-2-pyrimidinyl)-2-butanesulfonamide]
change of age-induced increase in BBB permeability in the OB [1]: −28% | reduction of CXCL1 concentrations in plasma (26 month-old mice [2]): 35% | reduction of CXCL13 concentrations in plasma (26 month-old mice [2]): 26% | increase of concentration of total BDNF in the hippocampus (26 month-old mice [3]): 20% | release of proinflammatory cytokines into astrocyte conditioned media (ACM) ([4]; 250 nM BGE-105, 24 hours): release less proinflammatory cytokines | NF-κB signaling activity ([4]; untreated versus BGE-105 treated SOD1^G93A astrocytes): changes to NF-κB signaling activity
